Assay results: patent US20220193076A1, “METHODS OF TREATING BREAST CANCER WITH TUCATINIB” (Seagen Inc., priority 2019, published 2022)

How the values were obtained:
[1] = Example 2 Part E: single- and multiple-dose PK of tucatinib and ONT-993; format: in vivo, human; conditions: tucatinib 300 mg BID, Day 14 vs Day 8
OAT2 = biological target: T1, OAT2 (Homo sapiens, UniProt Q9Y694); test: Inhibition of OAT2 mediated transport of creatinine in transfected MDCK-II cells (Example 3); format: in vitro ADME; conditions: at concentration of 10 μM
T1 construct: expressed in transfected cells; host or cells: MDCK-II
T1 sequence (Q9Y694 1-548): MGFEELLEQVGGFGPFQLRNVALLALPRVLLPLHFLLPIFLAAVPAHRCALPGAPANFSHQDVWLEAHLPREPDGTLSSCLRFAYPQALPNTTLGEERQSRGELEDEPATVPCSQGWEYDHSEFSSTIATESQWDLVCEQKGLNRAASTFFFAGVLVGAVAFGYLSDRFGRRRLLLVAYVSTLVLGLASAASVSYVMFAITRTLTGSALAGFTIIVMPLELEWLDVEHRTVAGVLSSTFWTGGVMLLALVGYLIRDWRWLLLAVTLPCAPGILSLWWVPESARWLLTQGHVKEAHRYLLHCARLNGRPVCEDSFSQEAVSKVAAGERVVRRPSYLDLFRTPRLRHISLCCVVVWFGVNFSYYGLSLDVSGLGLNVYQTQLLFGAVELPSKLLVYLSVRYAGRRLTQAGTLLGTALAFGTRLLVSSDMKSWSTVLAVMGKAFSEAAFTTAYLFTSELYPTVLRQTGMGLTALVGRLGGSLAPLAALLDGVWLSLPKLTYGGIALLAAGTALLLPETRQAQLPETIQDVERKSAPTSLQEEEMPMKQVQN
Description: (§1) Substrate dependent inhibition is common among transporters including MATE1 and MATE2-K. In this study, creatinine was used as the probe substrate to assess the inhibitory potency of Tucatinib and ONT-993. OAT2, OCT2, OCT3, MATE1, and MATE2-K are the renal transporters identified to transport creatinine. Tucatinib and its metabolite ONT-993 were tested as potential inhibitors of OAT2, OCT2, MATE1, and MATE2-K mediated transport using creatinine as a probe substrate.
(§2) For this study, MDCK-II were maintained in DMEM with low glucose and 10% FBS. Cells were seeded at 60K±10K cells/well on 96-well, transwell membrane plates approximately 24 hours before transfection. Transport assays were carried out approximately 48 hours after transfection. Cells were transfected and treated to express the transporter of interest or treated with a control vector. The transport of creatinine was determined by radiometric detection.
(§3) Net transporter mediated uptake of the substrate by each transporter was calculated as follows: Net Transporter Mediated Substrate Uptake (pmol/min/cm^2)=(Cellular accumulation in the presence of the transporter)−(Mean cellular accumulation in the absence of the transporter.
(§4) Percent inhibition was calculated as follows: Percent inhibition=100−(100*(transporter mediated uptake)with inhibition/(transporter mediated uptake)without inhibition) […]

MATE1 = biological target: T2, MATE1 (Homo sapiens, UniProt Q96FL8); test: Inhibition of MATE1 mediated transport of creatinine in transfected MDCK-II cells (Example 3); format: in vitro ADME; set-up: expressed in transfected cells; host or cells: MDCK-II; conditions: probe substrate creatinine
T2 sequence (Q96FL8 1-570): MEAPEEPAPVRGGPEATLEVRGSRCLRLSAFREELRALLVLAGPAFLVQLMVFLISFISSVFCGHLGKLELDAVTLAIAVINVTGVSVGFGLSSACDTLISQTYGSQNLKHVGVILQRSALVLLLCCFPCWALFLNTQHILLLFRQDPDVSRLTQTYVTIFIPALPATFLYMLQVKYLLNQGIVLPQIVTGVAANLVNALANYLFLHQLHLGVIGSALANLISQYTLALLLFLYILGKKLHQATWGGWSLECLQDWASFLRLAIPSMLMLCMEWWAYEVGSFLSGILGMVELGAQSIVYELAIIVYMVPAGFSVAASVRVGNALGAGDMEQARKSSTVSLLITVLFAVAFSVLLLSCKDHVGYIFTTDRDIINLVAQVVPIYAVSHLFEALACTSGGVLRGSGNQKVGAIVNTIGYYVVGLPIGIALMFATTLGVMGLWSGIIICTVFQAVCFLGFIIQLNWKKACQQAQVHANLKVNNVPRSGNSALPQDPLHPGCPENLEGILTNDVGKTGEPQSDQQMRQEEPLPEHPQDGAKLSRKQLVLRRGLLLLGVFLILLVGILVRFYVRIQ
Description: OAT2, OCT2, OCT3, MATE1, and MATE2-K are the renal transporters identified to transport creatinine.
as §2, §3
Percent inhibition was calculated as follows: Percent inhibition=100−(100*(transporter mediated uptake)with inhibition/(transporter mediated uptake)without inhibition)
The following equation was used to determine IC50 values of uptake assays: […]

OCT2 = biological target: T3, OCT2 (Homo sapiens, UniProt O15244); test: Inhibition of OCT2 mediated transport of creatinine in transfected MDCK-II cells (Example 3); format: in vitro ADME; conditions: probe substrate creatinine, 0.03 to 10 μM
T3 construct: expressed in transfected cells; host or cells: MDCK-II
T3 sequence (O15244 1-555): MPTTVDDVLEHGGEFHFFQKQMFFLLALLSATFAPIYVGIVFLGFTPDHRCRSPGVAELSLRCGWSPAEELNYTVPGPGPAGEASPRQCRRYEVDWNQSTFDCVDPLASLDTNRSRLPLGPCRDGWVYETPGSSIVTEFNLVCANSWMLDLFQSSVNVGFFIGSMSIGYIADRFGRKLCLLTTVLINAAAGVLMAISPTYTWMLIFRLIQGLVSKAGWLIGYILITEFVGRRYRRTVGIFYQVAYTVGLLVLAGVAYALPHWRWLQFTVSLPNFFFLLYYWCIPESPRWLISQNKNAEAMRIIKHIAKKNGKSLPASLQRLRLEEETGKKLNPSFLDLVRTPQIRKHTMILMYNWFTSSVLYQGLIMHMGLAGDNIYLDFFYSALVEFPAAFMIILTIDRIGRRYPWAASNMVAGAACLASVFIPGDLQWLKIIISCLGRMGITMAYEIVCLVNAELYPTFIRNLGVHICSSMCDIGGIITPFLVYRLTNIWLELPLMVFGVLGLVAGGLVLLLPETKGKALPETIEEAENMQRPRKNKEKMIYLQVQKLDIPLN
Description: as §1, §2, §3, §4

SMILES: Cc1cc(Nc2ncnc3ccc(NC4=NC(C)(CO)CO4)cc23)ccc1Oc1ccn2ncnc2c1 (stereo not shown) [ONT-993]
- Rac (accumulation ratio) after multiple dosing [1]: 2.01
- Maximum inhibition of OAT2 mediated transport of creatinine (OAT2): 44.9%
- IC50 (MATE1): 0.0863 ± 0.0126 µM
- IC50 (OCT2): 0.544 ± 0.278 µM
